According to patent publication US5008268A, “2-aminopyrimidinone derivatives” (Janssen Pharmaceutica N.V., priority 1989, dated 1991):

Assays:
Format in all cases: in vivo
[1] = system: compound 48/80-induced gastric lesions; assay: Protection of rats from compound 48/80-induced gastric lesions (antiserotoninergic); conditions: Rattus norvegicus, dose at which stomach distention and glandular-area lesions are completely absent in half of the rats
Excerpt: (§1) Int. Pharmacodyn. Ther. 251, 39-51 (1981).
The ED50 values of the tested compounds are listed in the second column of table 4. Said ED50 values are the doses in mg per kg bodyweight at which the distention of the stomach as well as lesions in the glandular area of the stomach are completely absent in half of the test rats.

[2] = system: peripheral serotonin; assay: Combined apomorphine, tryptamine and norepinephrine test in rats: tryptamine-induced hyperaemia of the ears; conditions: Rattus norvegicus, dose protecting half of tested animals from peripheral serotonin-induced phenomena, in particular hyperaemia of the ears
Excerpt: as §1
Pharmacodyn, 227, 238-253 (1977). Said test provides an empirical evaluation of the relative specificity with which drugs may effect particular neurotransmitters centrally (CNS) as well as peripherally. […] The ED50 values of the tested compounds are listed in column 3 of table 4 and represent the dose in mg per kg bodyweight which protects half of the tested animals from peripheral serotonin-induced phenomena, in particular hyperaemia of the ears.

[3] = system: compound 48/80-induced lethality; assay: Protection of rats from compound 48/80-induced lethality (antihistaminic); conditions: Rattus norvegicus, dose protecting 50% of tested animals against compound 48/80-induced lethality
Excerpt: as §1
The ED50 values of the tested compounds of formula (I) are listed in the first column of table 4. Said ED50 values are the values in mg per kg bodyweight at which the tested compounds protect 50% of the tested animals against compound 48/80-induced lethality.

Row | Structure (SMILES) | ED50 [1] [mg/kg] | ED50 [2] [mg/kg] | ED50 [3] [mg/kg]
1 | Cc1ccc(Cn2c(NC3CCN(CCc4c(C)nc(NCc5ccccc5)n(C)c4=O)CC3)nc3cccnc32)o1 [Compound 3] | 0.08 | 0.005 | –
2 | Cc1nc(N)n(C)c(=O)c1CCN1CCC(Nc2nc3ccccc3n2Cc2ccc(F)cc2)CC1 [Compound 7] | 0.02 | 0.01 | –
3 | Cc1nc(N)n(C)c(=O)c1CCN1CCC(Cc2nc3ccccc3n2Cc2ccc(F)cc2)CC1 [Compound 11, 2-amino-5-[2-[4-[[1-[(4-fluorophenyl)methyl]-1H-benzimidazol-2-yl]-methyl]-1-piperidinyl]ethyl]-3,6-dimethyl-4(3H)pyrimidinone] | 0.16 | 0.005 | 0.02
4 | Cc1nc(N)n(C)c(=O)c1CCN1CCC(Nc2nc3ccccc3n2Cc2ccc(CO)o2)CC1 [Compound 15, 2-amino-5-[2-[4-[[1-[[5-hydroxymethyl-2-furanyl]methyl]-1H-benzimidazol-2-yl]amino]-1-piperidinyl]ethyl]-3,6-dimethyl-4(3H)-pyrimidinone] | 0.005 | 0.002 | 0.02
5 | Cc1nc(N)n(C)c(=O)c1CCN1CCC(Nc2nc3cccnc3n2Cc2ccc(CO)o2)CC1 [Compound 16] | 0.16 | 0.005 | 0.01
6 | CNc1nc(C)c(CCN2CCC(Nc3nc4ccccc4n3Cc3ccc(CO)o3)CC2)c(=O)n1C [Compound 17, 5-[2-[4-[[1-[[5-(hydroxymethyl)-2-furanyl]methyl]-1H-benzimidazol-2-yl]amino]-1-piperidinyl]ethyl]-3,6-dimethyl-2(methylamino)-4(3H)-pyrimidinone] | 0.01 | 0.002 | 0.02
7 | Cc1nc(NCc2ccccn2)n(C)c(=O)c1CCN1CCC(Cc2nc3ccccc3n2Cc2ccc(F)cc2)CC1 [Compound 21] | 0.08 | 0.01 | 0.04
8 | CCNc1nc(C)c(CCN2CCC(Nc3nc4ccccc4n3Cc3ccc(CO)o3)CC2)c(=O)n1C [Compound 29] | 0.16 | 0.005 | 0.08
9 | CCOCCNc1nc(C)c(CCN2CCC(Nc3nc4ccccc4n3Cc3ccc(CO)o3)CC2)c(=O)n1C [Compound 30] | 0.02 | 0.02 | 0.04
10 | CCCCNc1nc(C)c(CCN2CCC(Nc3nc4cccnc4n3Cc3ccc(C)o3)CC2)c(=O)n1C [Compound 34] | 0.08 | 0.02 | 0.04
11 | Cc1nc(NCc2ccccn2)n(C)c(=O)c1CCN1CCC(Nc2nc3ccccc3n2Cc2ccc(CO)o2)CC1 [Compound 39] | 0.04 | 0.005 | 0.08
12 | CCCNc1nc(C)c(CCN2CCC(Nc3nc4ccccc4n3Cc3ccc(CO)o3)CC2)c(=O)n1C [Compound 43, 5-[2-[4-[[1-[[5-(hydroxymethyl)-2-furanyl]methyl]-1H-benzimidazol-2-yl]amino]-1-piperidinyl]ethyl]-3,6-dimethyl-2-(propylamino)-4(3H)-pyrimidinone] | 0.04 | 0.005 | 0.08
13 | Cc1nc2n(C)c(C)cn2c(=O)c1CCN1CCC(Cc2nc3ccccc3n2Cc2ccc(F)cc2)CC1 [Compound 50] | 0.16 | 0.02 | 0.04
14 | CC1=NN(C)c2nc(C)c(CCN3CCC(Cc4nc5ccccc5n4Cc4ccc(F)cc4)CC3)c(=O)n2C1 [Compound 58] | 0.16 | 0.02 | 0.04
15 | Cc1ccc(Cn2c(NC3CCN(CCc4c(C)nc5n(C)nc(C)n5c4=O)CC3)nc3cccnc32)o1 [Compound 67] | 0.08 | 0.08 | 0.04
16 | Cc1nc2n(C)ccn2c(=O)c1CCN1CCC(Nc2nc3ccccc3n2Cc2ccc(CO)o2)CC1 [Compound 68] | 0.04 | 0.04 | –
17 | Cc1nc2n(C)c(C)cn2c(=O)c1CCN1CCC(Nc2nc3ccccc3n2Cc2ccc(CO)o2)CC1 [Compound 71] | 0.04 | 0.01 | –
18 | Cc1nc2n(C)ccn2c(=O)c1CCN1CCC(Cc2nc3ccccc3n2Cc2ccc(CO)o2)CC1 [Compound 79] | 0.04 | 0.02 | –
19 | Cc1nc2ccccn2c(=O)c1CCN1CCC(Nc2nc3cccnc3n2Cc2ccco2)CC1 [reference, 3-[2-[4-[[3-(2-furanylmethyl)-3H-imidazo[4,5-b]pyridin-2-yl]amino]-1-piperidinyl]ethyl]-2-methyl-4H-pyrido[1,2-a]pyrimidin-4-one, reference compound] | 0.63 | 0.63 | 0.08
